According to patent US8329739B2, “Phenylimidazole compounds” (Otsuka Pharmaceutical Factory, Inc., priority 2009, dated 2012):
Counter-ions that a name gives are not always drawn.

Tests used:
[1] = molecular target: T1, LPL (lipoprotein lipase) (Mus musculus, UniProt P11152); assay: Confirmation test of LPL activation effect in mouse skeletal muscle cells (C2C12 cells); assay type: cell-based; conditions: 8 hours exposure, vs control group
T1 construct: endogenous in cells; host or cells: C2C12 cells, differentiated
T1 sequence (P11152 28-474): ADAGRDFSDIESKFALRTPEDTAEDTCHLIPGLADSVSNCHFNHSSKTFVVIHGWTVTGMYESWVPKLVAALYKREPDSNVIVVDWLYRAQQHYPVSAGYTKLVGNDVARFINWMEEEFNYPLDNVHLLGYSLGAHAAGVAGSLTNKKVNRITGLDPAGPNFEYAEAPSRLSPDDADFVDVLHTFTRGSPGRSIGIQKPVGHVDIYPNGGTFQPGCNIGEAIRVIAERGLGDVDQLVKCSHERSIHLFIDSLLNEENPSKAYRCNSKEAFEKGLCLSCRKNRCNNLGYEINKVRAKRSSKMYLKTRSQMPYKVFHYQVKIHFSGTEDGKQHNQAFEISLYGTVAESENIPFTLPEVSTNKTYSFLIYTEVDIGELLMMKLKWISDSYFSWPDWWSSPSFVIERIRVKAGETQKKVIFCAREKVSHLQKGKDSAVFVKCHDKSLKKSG
Description: Human skeletal muscle cells (human skeletal muscle myoblasts) or mouse skeletal muscle cells (C2C12 cells) that were seeded onto plates, cultured, and differentiated were exposed to a 0.3% dimethyl sulfoxide-containing culture medium in which the compound of the present invention was dissolved (concentration: 10 μM or 30 μM). The medium was removed 8 hours after exposure, 10 mM of Tris-HCl buffer (150 mM NaCl, 10 μ/mL; containing heparin sodium) was added to the cells, and the cells were incubated at 37° C. in the presence of 5% CO2 for 10 minutes. LPL activity in the supernatant was measured using an LPL activity assay kit (made by Roar Biomedical Inc.). LPL activity was evaluated based on the increase in fluorescence intensity 10 to 70 minutes after mixing the supernatant with the LPL substrate. The mean value of the increase in fluorescence intensity of the cells exposed to a 0.3% dimethyl sulfoxide-containing culture medium […] was used as mean value of the control group. Note that the compounds of Examples 18, 19, 32, 45 and 57 were tested using human skeletal muscle cells, and other compounds were tested using mouse skeletal muscle cells. The rate of increase (%) was calculated from the measured values of LPL activity in the control group and the experimental group, according to the following formula. Rate of increase in LPL activity (%)=[(mean value of the experimental group)−(mean value of the control group)]/(mean value of the control group)×100

| melting point | Rate of increase in LPL activity ([1]; amount of addition 10 μM) | Rate of increase in LPL activity ([1]; amount of addition 30 μM) | Structure (SMILES) |
| --- | --- | --- | --- |
| 231 to 236 °C | 12% | 98% | COc1cc(OCc2ccc(Br)cc2F)ccc1-c1c[nH]c(-c2cccc(Cl)c2)n1.Cl [Example 88] |
| 205 to 209 °C | 22% | 73% | COc1cc(-c2c[nH]c(-c3cccc(F)c3)n2)ccc1OCc1ccc(C#N)cc1 [Example 59] |
| 251 to 255 °C | – | – | COc1cc(OCc2ccc(Cl)cc2F)ccc1-c1c[nH]c(-c2ccc(F)c(F)c2)n1.Cl |
| 192 to 193 °C | – | – | COc1cc(-c2c[nH]c(-c3cccs3)n2)ccc1OCc1ccc(C#N)cc1 [Example 64] |
| 239 to 240 °C | 96% | 231% | COc1cc(OCc2ccc(Br)cc2F)ccc1-c1c[nH]c(-c2ccccc2)n1.Cl [Example 11] |
| 194 to 196 °C | – | – | COc1cc(OCc2ccccc2)ccc1-c1c[nH]c(-c2cccc(C)c2)n1.Cl |
| 138 to 139 °C | – | – | COc1cc(-c2cn(C)c(-c3ccc(C(F)(F)F)cc3)n2)ccc1OCc1ccccc1 [Example 6] |
| 241 to 244 °C | – | – | COc1cc(OCc2ccc(Cl)cc2)ccc1-c1c[nH]c(-c2ccc(C)cc2)n1.Cl |
| 244 to 247 °C | – | – | COc1cc(-c2c[nH]c(-c3cccc(F)c3)n2)ccc1OCc1ccc(Br)cc1F.Cl |
| 193 to 196 °C | – | – | COc1cc(-c2c[nH]c(-c3ccccc3)n2)ccc1OCc1ccc(C#N)cc1 [Example 63] |
| 254 to 258 °C | – | – | COc1cc(OCc2ccc(Cl)cc2F)ccc1-c1c[nH]c(-c2ccc(Cl)c(Cl)c2)n1.Cl |
| 260 to 262 °C | – | – | COc1cc(O)ccc1-c1c[nH]c(-c2ccc(C)cc2)n1 [Example 108] |
| – | 4% | 228% | COc1cc(-c2c[nH]c(-c3ccc(F)cc3)n2)ccc1OCc1ccc(C(F)(F)F)cc1 [Example 164] |
| 178 to 181 °C | – | – | COc1cc(-c2cnc(-c3cccs3)[nH]2)ccc1OCc1ccccc1 [Example 14] |
| 193 to 196 °C | – | – | COc1cc(OCc2ccc(C#N)cc2)ccc1-c1c[nH]c(-c2cccs2)n1 [Example 21] |
| > 250 °C | – | – | COc1cc(OCc2ccc(C#N)cc2)ccc1-c1c[nH]c(-c2cc(Cl)cc(Cl)c2)n1.Cl |
| – | 38% | 476% | COc1cc(-c2c[nH]c(-c3ccc(C(F)(F)F)cc3)n2)ccc1OCc1ccc(C(F)(F)F)cc1 [Example 165] |
| 146 to 147 °C | – | – | COc1cc(-c2cn(C)c(-c3ccccc3)n2)ccc1OCc1ccccc1 [Example 8] |
| 161 to 163 °C | – | – | COc1cc(OCc2ccccc2)ccc1-c1c[nH]c(-c2cc(Cl)cc(Cl)c2)n1 [Example 125] |
| 99 to 103 °C | – | – | COc1cc(OCc2ccc(C#N)cc2)ccc1-c1c[nH]c(-c2ccccc2)n1 [Example 12] |
| 126 to 128 °C | – | – | COc1cc(-c2c[nH]c(C(C)C)n2)ccc1OCc1ccc(Cl)cc1 [Example 35] |
| 240 to 245 °C | – | – | COc1cc(OCc2ccc(Br)cc2F)ccc1-c1c[nH]c(-c2cccc(F)c2)n1.Cl |
| 139 to 142 °C | – | – | COc1cc(OCc2ccccc2)ccc1-c1c[nH]c(-c2cccs2)n1.Cl |
| 132 to 135 °C | – | – | COc1cc(-c2c[nH]c(-c3ccsc3)n2)ccc1OCc1ccccc1 [Example 25] |
| 148 to 152 °C | – | – | COc1cc(-c2c[nH]c(C(C)C)n2)ccc1OCc1ccccc1 [Example 29] |

| melting point | Rate of increase in LPL activity ([1]; amount of addition 10 μM) | Rate of increase in LPL activity ([1]; amount of addition 30 μM) | Structure (SMILES) |
| --- | --- | --- | --- |
| 160 to 165 °C | – | – | COc1cc(-c2nc(-c3ccc(C(F)(F)F)cc3)[nH]c2C)ccc1OCc1ccccc1 [Example 34] |
| 146 to 148 °C | – | – | COc1ccc(-c2nc(-c3ccc(OCc4ccccc4)c(OC)c3)c[nH]2)cc1 [Example 27] |
| 191 to 194 °C | – | – | COc1cc(OCc2ccc(Cl)cc2F)ccc1-c1c[nH]c(-c2ccc(Cl)cc2)n1 [Example 131] |
| 241 to 243 °C | – | – | COc1cc(-c2c[nH]c(-c3ccc(C(=O)O)cc3)n2)ccc1OCc1ccccc1.Cl |
| 263 to 265 °C | – | – | COc1cc(OCc2ccc(Br)cc2F)ccc1-c1c[nH]c(-c2ccc(F)c(F)c2)n1 [Example 89] |
| 257 to 260 °C | – | – | COc1cc(OCc2ccc(C#N)cc2)ccc1-c1c[nH]c(-c2cccc(F)c2)n1 [Example 60] |
| 227 to 229 °C | – | – | COc1cc(OCc2ccccc2)ccc1-c1c[nH]c(-c2ccc(C(C)(C)C)cc2)n1 [Example 129] |
| 107 to 109 °C | – | – | COc1cc(OCc2ccc(Cl)cc2)ccc1-c1c[nH]c(-c2cccs2)n1 [Example 22] |
| – | 37% | 104% | COc1cc(OCc2ccc(C(F)(F)F)cc2)ccc1-c1c[nH]c(-c2ccc(C(F)(F)F)cc2)n1 [Example 167] |
| – | 64% | 360% | COc1cc(-c2c[nH]c(-c3ccc(C(F)(F)F)cc3)n2)ccc1OCc1ccc(Br)cc1F [Example 1, 4-[4-(4-bromo-2-fluorobenzyloxy)-3-methoxyphenyl]-2-[4-(trifluoromethyl)phenyl]-1H-imidazole hydrochloride] |
| 120 to 123 °C | – | – | COc1cc(OCc2ccc(Br)cc2F)ccc1-c1c[nH]c(-c2cccc(C)c2)n1 [Example 95] |
| 152 to 155 °C | – | – | COc1cc(OCc2ccc(Cl)cc2F)ccc1-c1c[nH]c(-c2ccc(C)cc2)n1 [Example 136] |
| > 250 °C | – | – | COc1cc(O)ccc1-c1c[nH]c(-c2ccc(F)cc2)n1 [Example 107] |
| 256 to 258 °C | – | – | COc1cccc(-c2nc(-c3ccc(OCc4ccc(Cl)cc4)cc3OC)c[nH]2)c1.Cl |
| 197 to 198 °C | – | – | COc1cc(-c2c[nH]c(-c3ccc(C(F)(F)F)cc3)n2)ccc1O [Example 41] |
| 142 to 145 °C | – | – | COc1cc(OCc2ccccc2)ccc1-c1c[nH]c(-c2cccc(Cl)c2)n1 [Example 122] |
| 211 to 213 °C | – | – | CCOC(=O)c1ccc(-c2nc(-c3ccc(OCc4ccccc4)c(OC)c3)c[nH]2)cc1.Cl |
| 116 to 123 °C | – | – | COc1cc(-c2c[nH]c(-c3ccc(F)cc3)n2)ccc1O [Example 44] |
| > 250 °C | – | – | COc1cc(O)ccc1-c1c[nH]c(-c2ccc(C(F)(F)F)cc2)n1 [Example 106] |
| 232 to 235 °C | – | – | COc1cc(O)ccc1-c1c[nH]c(-c2ccccc2)n1 [Example 105] |
| 115 to 120 °C | – | – | COc1cc(OCc2ccc(Cl)cc2F)ccc1-c1c[nH]c(-c2cccc(C)c2)n1 [Example 135] |
| 243 to 246 °C | – | – | COc1cc(OCc2ccc(C#N)cc2)ccc1-c1c[nH]c(-c2cccc(C)c2)n1.Cl |
| 217 to 220 °C | – | – | COc1cc(OCc2ccc(Cl)cc2)ccc1-c1c[nH]c(-c2cccc(C)c2)n1.Cl |
| 159 to 163 °C | – | – | COc1cc(-c2c[nH]c(C)n2)ccc1OCc1ccccc1 [Example 40] |
| 174 to 175 °C | – | – | COc1cc(-c2c[nH]c(-c3ccc(C(F)(F)F)cc3)n2)ccc1OCc1ccc(Br)cc1F (as salt: hydrochloride) [Example 1, 4-[4-(4-bromo-2-fluorobenzyloxy)-3-methoxyphenyl]-2-[4-(trifluoromethyl)phenyl]-1H-imidazole hydrochloride] |
